Measured values as given in US20240239812A1, “MACROCYCLIC 2-ALLYLTETRAHYDROFURANS AS INHIBITORS OF MCL-1” (JANSSEN PHARMACEUTICA NV, priority 2021, published 2024).
Like-named read-outs stand apart in the source and are kept apart here.

Legend:
[1] = target: Myeloid Cell Leukemia 1 (Mcl-1) (Homo sapiens (Human), UniProt Q07820); assay: Terbium labeled Mcl-1 HTRF binding assay, displacement of Cy5-labeled BIM BH3 peptide; settings: 25 pM Tb-Mcl-1, 8 nM Cy5 Bim peptide, 60 minutes at room temperature, read-out: Tb-MCL1 Ki
Chain of Myeloid Cell Leukemia 1 (Mcl-1) (Q07820 whole entry): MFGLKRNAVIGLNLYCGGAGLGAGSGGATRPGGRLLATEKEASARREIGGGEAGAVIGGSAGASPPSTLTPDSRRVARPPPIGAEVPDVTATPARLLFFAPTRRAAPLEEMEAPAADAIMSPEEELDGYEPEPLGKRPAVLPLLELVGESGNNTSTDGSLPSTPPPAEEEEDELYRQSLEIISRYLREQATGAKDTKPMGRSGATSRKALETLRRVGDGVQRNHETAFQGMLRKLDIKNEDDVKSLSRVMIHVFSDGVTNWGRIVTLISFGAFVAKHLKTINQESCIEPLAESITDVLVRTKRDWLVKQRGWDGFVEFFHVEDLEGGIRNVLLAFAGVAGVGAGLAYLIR
Description: Terbium labeled Myeloid Cell Leukemia 1 (Mcl-1) homogeneous time-resolved fluorescence (HTRF) binding assay utilizing the BIM BH3 peptide (H2N—(C/Cy5Mal) WIAQELRRIGDEFN-OH) as the binding partner for Mcl-1.
This assay evaluated inhibition of the BH3 domain: Mcl-1 interaction by measuring the displacement of Cy5-labeled BIM BH3 peptide (H2N—(C/Cy5Mal) WIAQELRRIGDEFN-OH) in the HTRF assay format.
The following assay and stock buffers were prepared for use in the assay: (a) Stock buffer: 10 mM Tris-HCl, pH=7.5+150 mM NaCl, filtered, sterilized, and stored at 4° C.; and (b) 1× assay buffer, where the following ingredients were added fresh to stock buffer: 2 mM dithiothreitol (DTT), 0.0025% Tween-20, 0.1 mg/mL bovine serum albumin (BSA). The 1×Tb-Mcl-1+Cy5 Bim peptide solution was prepared by diluting the protein stock solution using the 1× assay buffer (b) to 25 pM Tb-Mcl-1 and 8 nM Cy5 Bim peptide.
Using the Acoustic ECHO, 100 nL of 100× test compound(s) were dispensed into individual wells of a white 384-well Perkin Elmer Proxiplate, for a final compound concentration of 1× and final DMSO concentration of 1%. Inhibitor control and neutral control (NC, 100 nL of 100% DMSO) were stamped into columns 23 and 24 of assay plate, respectively. Into each well of the plate was then dispensed 10 μL of the 1×Tb-Mcl-1+Cy5 Bim peptide solution. The plate was centrifuged with a cover plate at 1000 rpm for 1 minute, then incubated for 60 minutes at room temperature with plates covered.
The TR-FRET signal was read on an BMG PHERAStar FSX MicroPlate Reader at room temperature using the HTRF optic module (HTRF: excitation: 337 nm, light source: laser, emission A: 665 nm, emission B: 620 nm, integration start: 60 μs, integration time: 400 μs).
The BMG PHERAStar FSX MicroPlate Reader was used to measure fluorescence intensity at two emission wavelengths—665 nm and 620 nm—and report relative fluorescence units (RFU) for both emissions, as well as a ratio of the emissions (665 nm/620 nm)*10,000. The RFU values were normalized to percent inhibition as follows:
% inhibition(((NC−IC)−(compound−IC))/(NC−IC))*100
where IC (inhibitor control, low signal)=mean signal of 1× Tb-MCl-1+Cy5 Bim peptide+inhibitor control or 100% inhibition of Mcl-1; NC (neutral control, high signal)=mean signal 1×Tb-MCl-1+Cy5 Bim peptide with DMSO only or 0% inhibition
An 11-point dose response curve was generated to determine IC50 values (using GenData) based on the following equation:
where Y=% inhibition in the presence of X inhibitor concentration; Top=100% inhibition derived from the IC (mean signal of Mcl-1+inhibitor control); Bottom=0% inhibition derived from the NC (mean signal of Mcl-1+DMSO); Hillslope=Hill coefficient; and IC50=concentration of compound with 50% inhibition in relation to top/neutral control (NC).
Representative compounds of the present invention were tested according to the procedure as described above, with results as listed in the Table below (n.d. means not determined).

[2] = system: MOLP-8 human multiple myeloma cell line; assay: Caspase-Glo 3/7 apoptosis induction assay in MOLP-8 cells; type: cell-based; settings: caspase-3/7 activity, 2 hours at 37° C., averaged over all runs on all batches, read-out: MOLP8 AC50
From the text: MCL-1 is a regulator of apoptosis and is highly over-expressed in tumor cells that escape cell death. The assay evaluates the cellular potency of small-molecule compounds targeting regulators of the apoptosis pathway, primarily MCL-1, Bfl-1, Bcl-2, and other proteins of the Bcl-2 family. Protein-protein inhibitors disrupting the interaction of anti-apoptotic regulators with BH3-domain proteins initiate apoptosis.
The Caspase-Glo® 3/7 Assay is a luminescent assay that measures caspase-3 and -7 activities in purified enzyme preparations or cultures of adherent or suspension cells. The assay provides a proluminescent caspase-3/7 substrate, which contains the tetrapeptide sequence DEVD. This substrate is cleaved to release aminoluciferin, a substrate of luciferase used in the production of light. Addition of the single Caspase-Glo® 3/7 Reagent in an “add-mix-measure” format results in cell lysis, followed by caspase cleavage of the substrate and generation of a “glow-type” luminescent signal.
This assay uses the MOLP-8 human multiple myeloma cell line, which is sensitive to MCL-1 inhibition.
Cell cultures were maintained between 0.2 and 2.0×10^6 cells/mL. The cells were harvested by collection in 50 mL conical tubes. The cells were then pelleted at 500 g for 5 mins before removing supernatant and resuspension in fresh pre-warmed culture medium. The cells were counted and diluted as needed.
The assay reagent was prepared by transferring the buffer solution to the substrate vial and mixing. The solution may be stored for up to 1 week at 4° C. with negligible loss of signal.
Compounds were delivered in assay-ready plates (Proxiplate) and stored at −20° C.
Assays always include 1 reference compound plate containing reference compounds. The plates were spotted with 40 nL of compounds (0.5% DMSO final in cells; serial dilution; 30 μM highest conc. 1/3 dilution, 10 doses, duplicates). The compounds were used at room temperature and 4 μL of pre-warmed media was added to all wells except column 2 and 23. The negative control was prepared by adding 1% DMSO in media. The positive control was prepared by adding the appropriate positive control compound in final concentration of 60 μM in media. The plate was prepared by adding 4 μL negative control to column 23, 4 μL positive control to column 2, and 4 μL cell suspension to all wells in the plate. The plate with cells was then incubated at 37° C. for 2 hours. The assay signal reagent is the Caspase-Glo solution described above, and 8 μL was added to all wells. The plates were then sealed and measured after 30 minutes.
The activity of a test compound was calculated as percent change in apoptosis induction as follows: […]

Work on `COc1nn(C)cc1C(=O)NS1(=O)=NC(=O)c2ccc3c(c2)N(C[C@@H]2CCO[C@H]2C(CN2CCN4CCOC[C@@H]4C2)(OC)/C(F)=C/C[C@H](C)C1)C[C@@]1(CCCc2cc(Cl)ccc21)CO3` (single isomer, unassigned) [Compound 28] yielded a Ki [1] of 0.011 nM and an AC50 [2] of 23.2 nM.
`COc1nn(C)cc1C(=O)NS1(=O)=NC(=O)c2ccc3c(c2)N(C[C@@H]2CCO[C@H]2C(CN2CCN4CCOC[C@@H]4C2)(OC)/C(F)=C/C[C@H](C)C1)C[C@@]1(CCCc2cc(Cl)ccc21)CO3` (single isomer, unassigned) [Compound 29] gave a Ki [1] of 0.17 nM and an AC50 [2] of 702 nM.
With `COc1nn(C)cc1C(=O)NS1(=O)=NC(=O)c2ccc3c(c2)N(C[C@@H]2CCO[C@H]2C(CN2CCN4CCOC[C@@H]4C2)(OC)/C(F)=C/C[C@H](C)C1)C[C@@]1(CCCc2cc(Cl)ccc21)CO3` (single isomer, unassigned) [Compound 30] the Ki [1] was 0.014 nM and the AC50 [2] was 28.6 nM.
`CO[C@H]1/C(F)=C/C[C@H](C)[C@@H](C)S(=O)(=O)NC(=O)c2ccc3c(c2)N(C[C@@H]2CCO[C@H]21)C[C@@]1(CCCc2cc(Cl)ccc21)CO3` [Compound 1] gave a Ki [1] of 0.218 nM and an AC50 ([2]; Homo sapiens, MOLP-8, 2 h) of 191 nM.
Work on `CO[C@@H]1/C(F)=C/C[C@H](C)[C@@H](C)S(=O)(=O)NC(=O)c2ccc3c(c2)N(C[C@@H]2CCO[C@H]21)C[C@@]1(CCCc2cc(Cl)ccc21)CO3` [Compound 2] yielded a Ki [1] of 1.13 nM and an AC50 ([2]; Homo sapiens, MOLP-8, 2 h) of 1120 nM.
Work on `CO[C@H]1/C=C/C[C@H](C)[C@@H](C)S(=O)(=O)NC(=O)c2ccc3c(c2)N(C[C@@H]2CCO[C@H]21)C[C@@]1(CCCc2cc(Cl)ccc21)CO3` [Compound 3] yielded a Ki [1] of 0.466 nM and an AC50 ([2]; Homo sapiens, MOLP-8, 2 h) of 432 nM.
For `COCC1/C=C/C[C@H](C)[C@@H](C)S(=O)(=O)NC(=O)c2ccc3c(c2)N(C[C@@H]2CCO[C@@H]12)C[C@@]1(CCCc2cc(Cl)ccc21)CO3` (stereo partly shown) [Compound 16], the Ki [1] was 0.673 nM and the AC50 ([2]; Homo sapiens, MOLP-8, 2 h) was 1820 nM.
Compound `COCC1/C=C/C[C@H](C)[C@@H](C)S(=O)(=O)NC(=O)c2ccc3c(c2)N(C[C@@H]2CCO[C@@H]12)C[C@@]1(CCCc2cc(Cl)ccc21)CO3` (stereo partly shown) [Compound 17] has a Ki [1] of 0.678 nM and an AC50 [2] of 2820 nM.
